Measurements published in patent publication US9499538B2, “Estrogen receptor modulators and uses thereof” (Seragon Pharmaceuticals, Inc., priority 2012, dated 2016).

Assays:
[1] = test system: MCF-7 cells; test: Breast Cancer Cell Viability Assays (MCF-7, CellTiter-Glo); format: cell-based; details: 5 days' compound exposure; for IC50: Homo sapiens, MCF7, 120 h
In short: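 Percent viability, background-subtracted against untreated wells, was taken from CellTiter-Glo luminescence after 5 days' exposure of MCF-7 cells. Compounds were tested at eleven semilog concentrations, final 0.3–0.000003 μM, in RPMI containing 10% FBS.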

[2] = biological target: T1, ER-α in MCF-7 cells (Homo sapiens, UniProt P03372); test: Breast Cancer Cell ER-α In Cell Western Assay (SP1); format: cell-based; details: 4 or 24 hr post compound addition; for Emax: MCF7, SP1 antibody, read-out: ER-α In Cell Western Assay (SP1) Max Response; for DC50: SP1 antibody, read-out: ER-α In Cell Western Assay (SP1) IC50
T1 construct: endogenous in cells; host or cells: MCF-7
T1 sequence (P03372 1-595): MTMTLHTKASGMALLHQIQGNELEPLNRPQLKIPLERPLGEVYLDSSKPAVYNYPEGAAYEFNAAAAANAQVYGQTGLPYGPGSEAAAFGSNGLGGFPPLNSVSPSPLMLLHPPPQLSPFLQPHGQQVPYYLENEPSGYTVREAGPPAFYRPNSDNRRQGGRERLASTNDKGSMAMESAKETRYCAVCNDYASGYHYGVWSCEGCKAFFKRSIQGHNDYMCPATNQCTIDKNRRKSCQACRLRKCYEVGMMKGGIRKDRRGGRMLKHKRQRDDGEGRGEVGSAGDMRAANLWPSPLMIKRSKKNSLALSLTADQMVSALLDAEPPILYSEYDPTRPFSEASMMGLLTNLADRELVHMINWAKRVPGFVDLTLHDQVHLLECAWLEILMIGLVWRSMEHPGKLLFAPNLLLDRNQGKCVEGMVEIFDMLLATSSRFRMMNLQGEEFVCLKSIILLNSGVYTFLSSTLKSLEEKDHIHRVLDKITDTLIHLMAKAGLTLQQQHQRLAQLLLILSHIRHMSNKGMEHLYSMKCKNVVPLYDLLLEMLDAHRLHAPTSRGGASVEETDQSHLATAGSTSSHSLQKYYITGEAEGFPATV
In short: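 ER-α levels quantified by in-cell western: SP1 signal normalised to DRAQ5 DNA stain, relative to untreated cells (% ER). Compounds at 0.3–0.000003 μM final, 11-point semilog series, 4 or 24 h exposure of MCF-7 cells grown in charcoal-stripped serum.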

Cc1cscc1/C(=C(\c1ccc(/C=C/C(=O)O)cc1)c1cccc2[nH]ncc12)C1CCC1 [Example 126, (E)-3-(4-((E)-2-Cyclobutyl-1-(1H-indazol-4-yl)-2-(4-methylthiophen-3-yl)vinyl)phenyl)acrylic acid]
MCF7 Viability Assay Max Response [1]: ++ (++ = a single % value ≧ 40%)
IC50 [1]: ≤ 0.1 µM
Emax [2]: ≥ 40%
DC50 [2]: ≤ 0.1 µM

COc1cc(C)c(/C(=C(\c2ccc(/C=C/C(=O)O)cc2)c2cccc3[nH]ncc23)C2CCC2)cn1 [Example 127, (E)-3-(4-((E)-2-Cyclobutyl-1-(1H-indazol-4-yl)-2-(6-methoxy-4-methylpyridin-3-yl)vinyl)phenyl)acrylic acid]
MCF7 Viability Assay Max Response [1]: ++ (++ = a single % value ≧ 40%)
IC50 [1]: ≤ 0.1 µM
Emax [2]: ≥ 40%
DC50 [2]: ≤ 0.1 µM

O=C(O)/C=C/c1ccc(/C(=C(\c2cccnc2)C2CCC2)c2ccc3[nH]nc(F)c3c2)cc1 [Example 128, (E)-3-(4-((E)-2-Cyclobutyl-1-(3-fluoro-1H-indazol-5-yl)-2-(pyridin-3-yl)vinyl)phenyl)acrylic acid]
MCF7 Viability Assay Max Response [1]: + (+ = a single % value < 40%)
IC50 [1]: > 0.1 µM
Emax [2]: ≥ 40%
DC50 [2]: ≤ 0.1 µM

Cc1cncc(/C(=C(\c2ccc(/C=C/C(=O)O)cc2)c2ccc3[nH]nc(F)c3c2)C2CCC2)c1 [Example 129, (E)-3-(4-((E)-2-Cyclobutyl-1-(3-fluoro-1H-indazol-5-yl)-2-(5-methylpyridin-3-yl)vinyl)phenyl)acrylic acid]
MCF7 Viability Assay Max Response [1]: ++ (++ = a single % value ≧ 40%)
IC50 [1]: ≤ 0.1 µM
Emax [2]: ≥ 40%
DC50 [2]: ≤ 0.1 µM

O=C(O)/C=C/c1ccc(/C(=C(\c2cncc(Cl)c2)C2CCC2)c2ccc3[nH]nc(F)c3c2)cc1 [Example 130, (E)-3-(4-((E)-2-(5-Chloropyridin-3-yl)-2-cyclobutyl-1-(3-fluoro-1H-indazol-5-yl)vinyl)phenyl)acrylic acid]
MCF7 Viability Assay Max Response [1]: ++ (++ = a single % value ≧ 40%)
IC50 [1]: ≤ 0.1 µM
Emax [2]: ≥ 40%
DC50 [2]: ≤ 0.1 µM

O=C(O)/C=C/c1ccc(/C(=C(\c2cncc(F)c2)C2CCC2)c2ccc3[nH]nc(F)c3c2)cc1 [Example 131, (E)-3-(4-((E)-2-Cyclobutyl-1-(3-fluoro-1H-indazol-5-yl)-2-(5-fluoropyridin-3-yl)vinyl)phenyl)acrylic acid]
MCF7 Viability Assay Max Response [1]: ++ (++ = a single % value ≧ 40%)
IC50 [1]: ≤ 0.1 µM
Emax [2]: ≥ 40%
DC50 [2]: ≤ 0.1 µM

COc1cncc(/C(=C(\c2ccc(/C=C/C(=O)O)cc2)c2ccc3[nH]nc(F)c3c2)C2CCC2)c1 [Example 132, (E)-3-(4-((E)-2-Cyclobutyl-1-(3-fluoro-1H-indazol-5-yl)-2-(5-methoxypyridin-3-yl)vinyl)phenyl)acrylic acid]
MCF7 Viability Assay Max Response [1]: ++ (++ = a single % value ≧ 40%)
IC50 [1]: ≤ 0.1 µM
Emax [2]: ≥ 40%
DC50 [2]: ≤ 0.1 µM

COc1cc(C)ncc1/C(=C(\c1ccc(/C=C/C(=O)O)cc1)c1ccc2[nH]nc(F)c2c1)C1CCC1 [Example 133, (E)-3-(4-((E)-2-Cyclobutyl-1-(3-fluoro-1H-indazol-5-yl)-2-(4-methoxy-6-methylpyridin-3-yl)vinyl)phenyl)acrylic acid]
MCF7 Viability Assay Max Response [1]: ++ (++ = a single % value ≧ 40%)
IC50 [1]: ≤ 0.1 µM
Emax [2]: ≥ 40%
DC50 [2]: ≤ 0.1 µM

Cc1nc(/C=C/C(=O)O)ccc1/C(=C(\c1ccccc1)C1CCC1)c1ccc2[nH]nc(F)c2c1 [Example 134, (E)-3-(5-((Z)-2-Cyclobutyl-1-(3-fluoro-1H-indazol-5-yl)-2-phenylvinyl)-6-methylpyridin-2-yl)acrylic acid]
MCF7 Viability Assay Max Response [1]: ++ (++ = a single % value ≧ 40%)
IC50 [1]: ≤ 0.1 µM
Emax [2]: ≥ 40%
DC50 [2]: ≤ 0.1 µM

Cc1cc(/C(=C(\c2ccccc2)C2CCC2)c2ccc3[nH]nc(F)c3c2)cnc1/C=C/C(=O)O [Example 135, (E)-3-(5-((Z)-2-Cyclobutyl-1-(3-fluoro-1H-indazol-5-yl)-2-phenylvinyl)-3-methylpyridin-2-yl)acrylic acid]
MCF7 Viability Assay Max Response [1]: ++ (++ = a single % value ≧ 40%)
IC50 [1]: > 0.1 µM
Emax [2]: ≥ 40%
DC50 [2]: ≤ 0.1 µM

COc1ncc(/C(=C(\c2ccc(/C=C/C(=O)O)cc2)c2ccc3[nH]nc(F)c3c2)C2CCC2)cc1Cl [Example 136, (E)-3-(4-((E)-2-(5-Chloro-6-methoxypyridin-3-yl)-2-cyclobutyl-1-(3-fluoro-1H-indazol-5-yl)vinyl)phenyl)acrylic acid]
MCF7 Viability Assay Max Response [1]: ++ (++ = a single % value ≧ 40%)
IC50 [1]: ≤ 0.1 µM
Emax [2]: ≥ 40%
DC50 [2]: ≤ 0.1 µM

COc1ncc(/C(=C(\c2ccc(/C=C/C(=O)O)cc2)c2ccc3[nH]nc(F)c3c2)C2CCC2)cc1F [Example 137, (E)-3-(4-((E)-2-Cyclobutyl-1-(3-fluoro-1H-indazol-5-yl)-2-(5-fluoro-6-methoxypyridin-3-yl)vinyl)phenyl)acrylic acid]
MCF7 Viability Assay Max Response [1]: ++ (++ = a single % value ≧ 40%)
IC50 [1]: ≤ 0.1 µM
Emax [2]: ≥ 40%
DC50 [2]: ≤ 0.1 µM

COc1ccc(/C(=C(\c2ccc(/C=C/C(=O)O)cc2)c2ccc3[nH]nc(F)c3c2)C2CCC2)cn1 [Example 138, (E)-3-(4-((E)-2-Cyclobutyl-1-(3-fluoro-1H-indazol-5-yl)-2-(6-methoxypyridin-3-yl)vinyl)phenyl)acrylic acid]
MCF7 Viability Assay Max Response [1]: ++ (++ = a single % value ≧ 40%)
IC50 [1]: ≤ 0.1 µM
Emax [2]: ≥ 40%
DC50 [2]: ≤ 0.1 µM

CC/C(=C(/c1ccc(/C=C/C(=O)O)cc1)c1cccc2[nH]nc(F)c12)c1cnc(OC)cc1C [Example 139, (E)-3-(4-((E)-1-(3-Fluoro-1H-indazol-4-yl)-2-(6-methoxy-4-methylpyridin-3-yl)but-1-en-1-yl)phenyl)acrylic acid]
MCF7 Viability Assay Max Response [1]: ++ (++ = a single % value ≧ 40%)
IC50 [1]: ≤ 0.1 µM
Emax [2]: ≥ 40%
DC50 [2]: ≤ 0.1 µM

COc1cc(C)c(/C(=C(/c2ccc3[nH]nc(F)c3c2)c2ccc(/C=C/C(=O)O)nc2C)C2CCC2)cn1 [Example 140, (E)-3-(5-((Z)-2-Cyclobutyl-1-(3-fluoro-1H-indazol-5-yl)-2-(6-methoxy-4-methylpyridin-3-yl)vinyl)-6-methylpyridin-2-yl)acrylic acid]
MCF7 Viability Assay Max Response [1]: ++ (++ = a single % value ≧ 40%)
IC50 [1]: ≤ 0.1 µM
Emax [2]: ≥ 40%
DC50 [2]: ≤ 0.1 µM

O=C(O)/C=C/c1ccc(/C(=C(\c2ccccn2)C2CCC2)c2ccc3[nH]nc(F)c3c2)cc1 [Example 141, (E)-3-(4-((E)-2-Cyclobutyl-1-(3-fluoro-1H-indazol-5-yl)-2-(pyridin-2-yl)vinyl)phenyl)acrylic acid]
MCF7 Viability Assay Max Response [1]: ++ (++ = a single % value ≧ 40%)
IC50 [1]: ≤ 0.1 µM
Emax [2]: ≥ 40%
DC50 [2]: ≤ 0.1 µM

O=C(O)/C=C/c1ccc(/C(=C(\c2ncccc2F)C2CCC2)c2ccc3[nH]nc(F)c3c2)cc1 [Example 142, (E)-3-(4-((E)-2-Cyclobutyl-1-(3-fluoro-1H-indazol-5-yl)-2-(3-fluoropyridin-2-yl)vinyl)phenyl)acrylic acid]
MCF7 Viability Assay Max Response [1]: ++ (++ = a single % value ≧ 40%)
IC50 [1]: ≤ 0.1 µM
Emax [2]: ≥ 40%
DC50 [2]: ≤ 0.1 µM

O=C(O)/C=C/c1ccc(/C(=C(\c2ncccc2Cl)C2CCC2)c2ccc3[nH]nc(F)c3c2)cc1 [Example 143, (E)-3-(4-((E)-2-(3-Chloropyridin-2-yl)-2-cyclobutyl-1-(3-fluoro-1H-indazol-5-yl)vinyl)phenyl)acrylic acid]
MCF7 Viability Assay Max Response [1]: ++ (++ = a single % value ≧ 40%)
IC50 [1]: ≤ 0.1 µM
Emax [2]: ≥ 40%
DC50 [2]: ≤ 0.1 µM

Cc1cccnc1/C(=C(\c1ccc(/C=C/C(=O)O)cc1)c1ccc2[nH]nc(F)c2c1)C1CCC1 [Example 144, (E)-3-(4-((E)-2-Cyclobutyl-1-(3-fluoro-1H-indazol-5-yl)-2-(3-methylpyridin-2-yl)vinyl)phenyl)acrylic acid]
MCF7 Viability Assay Max Response [1]: ++ (++ = a single % value ≧ 40%)
IC50 [1]: ≤ 0.1 µM
Emax [2]: ≥ 40%
DC50 [2]: ≤ 0.1 µM

O=C(O)/C=C/c1ccc(/C(=C(\c2ncccc2C(F)(F)F)C2CCC2)c2ccc3[nH]nc(F)c3c2)cc1 [Example 145, (E)-3-(4-((E)-2-Cyclobutyl-1-(3-fluoro-1H-indazol-5-yl)-2-(3-(trifluoromethyl)pyridin-2-yl)vinyl)phenyl)acrylic acid]
MCF7 Viability Assay Max Response [1]: ++ (++ = a single % value ≧ 40%)
IC50 [1]: ≤ 0.1 µM
Emax [2]: ≥ 40%
DC50 [2]: ≤ 0.1 µM
